In assay [1] the target is T1, recombinant human ERK5 catalytic domain (Homo sapiens, UniProt Q13164).
T1 construct: Recombinant human ERK5 catalytic domain radiometric assays; purchased Reaction Biology, Corp (Malvern, Pa.), which ran the assay as a service
The assay is described as follows: Recombinant human ERK5 radiometric (HotSpot) assay. It is filed as biochemical. As for the experimental part: In this example, potency of the compounds in recombinant human ERK5 was assayed.
Recombinant human ERK5 catalytic domain radiometric assays were performed by Reaction Biology, Corp (Malvern, Pa.). The HotSpot radiometric assay is based on conventional filter-binding assays (Nature Biotechnology (2011) 29: 1039-1045). Compounds were tested at 20 μM down by ⅓ in a 10 point serial dilution series. Briefly, [γ-33P]-ATP was used as the tracer along with 10 μM cold ATP to label ERK5 in the presence of 20 μM myelin basic protein substrate.

Another assay relates to human PBMCs. The assay is described as follows: Human PBMC TNF-α response to endotoxin (ELISA). It is filed as cell-based. The following applies: 0.1 μg/ml LPS 16 h, read-out: EC50 for the inhibition of the human PBMC TNF-α response to endotoxin, ave. ± S.D. Summed up:
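PBMCs at 2e6 cells/ml in RPMI 1640 with 10% charcoal-dextran-treated FBS were pre-treated 1 h at 37 °C with compound (4-point 1:5 dilution from 10 μM). Stimulation with 0.1 μg/ml E. coli 0111:B4 LPS for 16 h; TNF-α measured by ELISA (A450) in 25-fold diluted supernatant.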
(ELISA stands for enzyme-linked immunosorbent assay.)

The target of assay [2] is T2, BRD4 bromodomain domain I [BRD4(1)] (Homo sapiens, UniProt O60885).
T2 construct: BRD4 bromodomain domain I [BRD4(1)]; purchased Cayman Chemicals
Briefly: BRD4 bromodomain domain 1 inhibition assay (TR-FRET). It is filed as binding. The following applies: for inhibition at 10 µM: screening concentration 10 μM. The gist of the method: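 0.5% DMSO, in triplicate, using Cayman BRD4(1) TR-FRET protocol with slight modification. 670/620 nm ratio normalized to 10 μM JQ1, with DMSO control set as 0% inhibition.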
(In general: In TR-FRET formats the signal depends on donor and acceptor labels being close together.)

[3] abbreviates: 10 μM ATP, 20 μM myelin basic protein substrate, read-out: rhERK5 IC50.

Like-named read-outs stand apart in the source and are kept apart here. A value given as a limit tells only on which side of the number the result lay.

T1 sequence (Q13164 55-347 limits assumed): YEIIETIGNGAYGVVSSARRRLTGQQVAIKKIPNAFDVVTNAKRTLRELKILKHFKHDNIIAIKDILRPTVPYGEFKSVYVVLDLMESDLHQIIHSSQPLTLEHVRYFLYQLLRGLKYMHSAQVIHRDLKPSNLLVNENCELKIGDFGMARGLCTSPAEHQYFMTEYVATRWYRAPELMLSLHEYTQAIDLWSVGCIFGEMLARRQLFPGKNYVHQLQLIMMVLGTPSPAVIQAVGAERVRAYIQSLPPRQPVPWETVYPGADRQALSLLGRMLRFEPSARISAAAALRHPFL

As for `CCOc1cc(C(=O)N2CCC(N3CCOCC3)CC2)ccc1Nc1cc2c(cn1)N(C)C(=O)c1ccccc1N2C` [Compound T12], the concentration for half-maximal inhibition (IC50) – broadly, the concentration at which inhibition is half-maximal – in assay [1] (setting [3]) lay within 20 to 50 nM. The EC50 (commonly the midpoint of the concentration-response curve) with human PBMCs was found to be 680 nM.
Taken in the same sequence, the figures for `CCOc1cc(C(=O)N2CCC[C@H](O)C2)ccc1Nc1cc2c(cn1)N(C)C(=O)c1scnc1N2C` [Compound T13] were 50 to 200 nM and 950 nM.
Taken in the same sequence, the figures for `CCOc1cc(C(=O)N2CCN(CCOC)CC2)ccc1Nc1cc2c(cn1)N(C)C(=O)c1ccccc1N2C` [Compound T16] were 20 to 50 nM and 920 nM.
With `CCOc1cc(C(=O)N2CCN(CCC#N)CC2)ccc1Nc1cc2c(cn1)N(C)C(=O)c1ccccc1N2C` [Compound T17], the half-maximal inhibitory concentration (IC50) in assay [1] (setting [3]) was in the range of 20 to 50 nM. For the same compound, the EC50 in the assay with human PBMCs was found to be 900 nM.
Consider `CCOc1cc(C(=O)N2CC[C@@H](N3CCOCC3)C2)ccc1Nc1cc2c(cn1)N(C)C(=O)c1ccccc1N2C` [Compound T19], for which the 50% inhibitory concentration (IC50) in assay [1] (setting [3]) was in the range of 50 to 200 nM. For the same compound, in the assay on human PBMCs, the EC50 was 690 nM.
Turning to `CCOc1cc(C(=O)N2CC[C@@H](C#N)C2)ccc1Nc1cc2c(cn1)N(C)C(=O)c1ccccc1N2C` [Compound T21], in assay [1] (setting [3]), the IC50 was < 20 nM. The half-maximal effective concentration (EC50) with human PBMCs came out at 1280 nM.
Taken in the same sequence, the figures for `CCOc1cc(C(=O)N2CCC[C@@H](C#N)C2)ccc1Nc1cc2c(cn1)N(C)C(=O)c1ccccc1N2C` [Compound T23] were > 200 nM and 2390 nM.
`CCOc1cc(C(=O)N2CCC[C@H](C#N)C2)ccc1Nc1cc2c(cn1)N(C)C(=O)c1ccccc1N2C` [Compound T24]: the IC50 in assay [1] (setting [3]) was > 200 nM. Further, in the assay on human PBMCs, the EC50 came out at 3270 nM.
Regarding `CCOc1cc(C(=O)N2CCN[C@@H](C)C2)ccc1Nc1cc2c(cn1)N(C)C(=O)c1ccccc1N2C` [Compound T25], in assay [1] (setting [3]), the half-inhibitory concentration (IC50) was < 20 nM. Further, in the assay on human PBMCs, the EC50 worked out at 480 nM. The inhibition (as a rule, the drop in the measured response relative to a control, in per cent) at 10 µM in assay [2] is > 85%.
Take `CCOc1cc(C(C)N2CCCC2)ccc1Nc1cc2c(cn1)N(C)C(=O)c1ccccc1N2C` (centres unmarked) [Compound T26]: the IC50 in assay [1] (setting [3]) was < 20 nM. In the assay on human PBMCs, the EC50 was 410 nM. Further, the inhibition at 10 µM in assay [2] is > 85%.
Taken in the same sequence, the figures for `CCOc1cc(C(C)N2CC[C@@H](O)C2)ccc1Nc1cc2c(cn1)N(C)C(=O)c1ccccc1N2C` (some centres unmarked) [Compound T27] were < 20 nM, 370 nM and > 85%.
Turning to `CCOc1cc(C(=O)N2CCC(=O)CC2)ccc1Nc1cc2c(cn1)N(C)C(=O)c1ccccc1N2C` [Compound T28], in assay [1], the IC50 is < 20 nM. Moreover, the EC50 with human PBMCs was determined as 480 nM.
Consider `CCOc1cc(C(=O)N2CCN[C@H](C)C2)ccc1Nc1cc2c(cn1)N(C)C(=O)c1ccccc1N2C` [Compound T29], for which, in assay [1] (setting [3]), the IC50 is < 20 nM. In the assay with human PBMCs, the 50% effective concentration (EC50) worked out at 350 nM. Moreover, the inhibition at 10 µM in assay [2] is > 85%.
`CCOc1cc(C(=O)N2CCN(C(=O)CN)CC2)ccc1Nc1cc2c(cn1)N(C)C(=O)c1ccccc1N2C` [Compound T30]: the IC50 in assay [1] (setting [3]) is < 20 nM. Also, the EC50 in the assay with human PBMCs was found to be 770 nM.
As for `CN1C(=O)c2ccccc2N(C)c2cc(Nc3ccc(C(=O)N4CCC[C@H](O)C4)cc3OCCF)ncc21` [Compound T32], the concentration for half-maximal inhibition (IC50) in assay [1] (setting [3]) lay in the range of 50 to 200 nM. Further, the half-maximal effective concentration (EC50) with human PBMCs worked out at 870 nM.
As to `CN1C(=O)c2ccccc2N(C)c2cc(Nc3ccc(C(=O)N4CCCNCC4)cc3OCCF)ncc21` [Compound T33], the concentration for half-maximal inhibition (IC50) in assay [1] (setting [3]) is < 20 nM. In the assay with human PBMCs, the EC50 was found to be 670 nM.
Taken in the same sequence, the figures for `CCOc1cc(C(=O)N2CCN(c3ccccn3)CC2)ccc1Nc1cc2c(cn1)N(C)C(=O)c1ccccc1N2C` [Compound T35] were 20 to 50 nM and 660 nM.
Taken in the same sequence, the figures for `CCOc1cc(C(=O)N2CCN(c3cccnc3)CC2)ccc1Nc1cc2c(cn1)N(C)C(=O)c1ccccc1N2C` [Compound T36] were < 20 nM and 110 nM.
As for `CCOc1cc(C(=O)N2CCC(N(C)CCO)CC2)ccc1Nc1cc2c(cn1)N(C)C(=O)c1ccccc1N2C` [Compound T38], in assay [1] (setting [3]), the IC50 lay in the range of 20 to 50 nM. Moreover, in the assay on human PBMCs, the EC50 was found to be 320 nM.
The like results for `CCCOc1cc(C(=O)N2CCC[C@H](O)C2)ccc1Nc1cc2c(cn1)N(C)C(=O)c1ccccc1N2C` [Compound T39] were, in that order, > 200 nM and 920 nM.
The like results for `CCCOc1cc(C(=O)N2CCCNCC2)ccc1Nc1cc2c(cn1)N(C)C(=O)c1ccccc1N2C` [Compound T40] were, in that order, 20 to 50 nM and 490 nM.
Taken in the same sequence, the figures for `CCCOc1cc(C(=O)N2CCC(N3CCN(C)CC3)CC2)ccc1Nc1cc2c(cn1)N(C)C(=O)c1ccccc1N2C` [Compound T41] were 20 to 50 nM and 370 nM.
For `CCOc1cc(C(=O)N2CCC[C@H](OP(=O)(O)O)C2)ccc1Nc1cc2c(cn1)N(C)C(=O)c1ccccc1N2C` [Compound T43], the half-inhibitory concentration (IC50) in assay [1] (setting [3]) was 20 to 50 nM. The EC50 in the assay on human PBMCs is > 10000 nM.
The like results for `CCOc1cc(C(=O)N2CCC[C@H](OC(=O)CN(C)C)C2)ccc1Nc1cc2c(cn1)N(C)C(=O)c1ccccc1N2C` [Compound T44] were, in that order, 20 to 50 nM and 650 nM.
The like results for `CCOc1cc(C(=O)N2CCC(N3CCCNCC3)CC2)ccc1Nc1cc2c(cn1)N(C)C(=O)c1ccccc1N2C` [Compound T45] were, in that order, < 20 nM and 1480 nM.
`CCOc1cc(C(=O)N2CCNC(C)CC2)ccc1Nc1cc2c(cn1)N(C)C(=O)c1ccccc1N2C` (centres unmarked) [Compound T46]: the half-inhibitory concentration (IC50) in assay [1] (setting [3]) is < 20 nM. Moreover, in the assay with human PBMCs, the EC50 was 600 nM.
The like results for `CCOc1cc(C(=O)N2CCC(N3CCN[C@H](C)C3)CC2)ccc1Nc1cc2c(cn1)N(C)C(=O)c1ccccc1N2C` [Compound T51] were, in that order, 20 to 50 nM and 740 nM.
Taken in the same sequence, the figures for `CCOc1cc(C(=O)N2CCC(N3CCN[C@@H](C)C3)CC2)ccc1Nc1cc2c(cn1)N(C)C(=O)c1ccccc1N2C` [Compound T52] were 20 to 50 nM and 1080 nM.
The like results for `CCOc1cc(C(=O)N2CCC[C@H](N3CCCC3)C2)ccc1Nc1cc2c(cn1)N(C)C(=O)c1ccccc1N2C` [Compound T53] were, in that order, 50 to 200 nM and 890 nM.
For `CCOc1cc(C(=O)N2CC[C@@H](N(C)CCO)C2)ccc1Nc1cc2c(cn1)N(C)C(=O)c1ccccc1N2C` [Compound T55], the IC50 in assay [1] (setting [3]) lay within 20 to 50 nM. For the same compound, the EC50 with human PBMCs worked out at 840 nM.
Taken in the same sequence, the figures for `CCOc1cc(C(=O)N2CCC[C@@H](N3CCCC3)C2)ccc1Nc1cc2c(cn1)N(C)C(=O)c1ccccc1N2C` [Compound T57] were 50 to 200 nM and 650 nM.
Taken in the same sequence, the figures for `CCOc1cc(C(=O)N2CC[C@@H](N3CCNCC3)C2)ccc1Nc1cc2c(cn1)N(C)C(=O)c1ccccc1N2C` [Compound T58] were 20 to 50 nM and 1040 nM.
Regarding `CCOc1cc(C(=O)N[C@H]2CC[C@H](O)CC2)ccc1Nc1cc2c(cn1)N(C)C(=O)c1ccccc1O2` [Compound T89], the IC50 was 50 to 200 nM in assay [1] (setting [3]) and > 5 µM in assay [2]. Also, the EC50 in the assay with human PBMCs is 1720 ± 1510 nM.
Taken in the same sequence, the figures for `CN1C(=O)c2cccc(F)c2Oc2cc(N[C@H]3CC[C@H](O)CC3)ncc21` [Compound T93] were > 200 nM, > 5 µM and 1720 ± 1340 nM.
The like results for `CN1C(=O)c2cccc(Cl)c2Oc2cc(N[C@H]3CC[C@H](O)CC3)ncc21` [Compound T94] were, in that order, > 200 nM, > 5 µM and 1170 ± 1120 nM.
